# In patent US10167262B2, “Herbicidal substituted 3-arylpyrazoles” (FMC CORPORATION, priority 2014, dated 2019):
# What was measured:
# Assay in all cases: Test E pre-/postemergence greenhouse test, plant response rating 0-100
# Type in all cases: in vivo
# [1] = tested on: kochia (Kochia scoparia); settings: Preemergence, scale 0 to 100
# Outline: (§1)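 Seeds sown in silt loam soil received preemergence treatment with compound in a non-phytotoxic solvent mixture containing surfactant. Postemergence, plants at 2–18 cm (1- to 4-leaf stage) in peat/vermiculite medium were sprayed with the same formulation. Visual injury versus untreated controls was rated 0–100 after 14 to 21 days in the greenhouse.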
# [2] = tested on: surinam grass (Brachiaria decumbens); settings: Preemergence, scale 0 to 100
# Outline: as §1
# [3] = tested on: velvetleaf (Abutilon theophrasti); settings: Preemergence, scale 0 to 100
# Outline: as §1
# [4] = tested on: ragweed (common ragweed, Ambrosia elatior); settings: Preemergence, scale 0 to 100
# Outline: as §1
# [5] = tested on: smartweed (ladysthumb smartweed, Polygonum persicaria); settings: Postemergence, scale 0 to 100
# [6] = tested on: giant foxtail (Setaria faberii); settings: Preemergence, scale 0 to 100
Compound,Kochia plant response rating ([1]; 31 g ai/ha),Kochia plant response rating ([1]; 62 g ai/ha),Kochia plant response rating ([1]; 125 g ai/ha),Kochia plant response rating ([1]; 250 g ai/ha),Kochia plant response rating ([1]; 500 g ai/ha),Surinam Grass plant response rating ([2]; 31 g ai/ha),Surinam Grass plant response rating ([2]; 62 g ai/ha),Surinam Grass plant response rating ([2]; 125 g ai/ha),Surinam Grass plant response rating ([2]; 250 g ai/ha),Surinam Grass plant response rating ([2]; 500 g ai/ha),Velvetleaf plant response rating ([3]; 31 g ai/ha),Velvetleaf plant response rating ([3]; 62 g ai/ha),Velvetleaf plant response rating ([3]; 125 g ai/ha),Velvetleaf plant response rating ([3]; 250 g ai/ha),Velvetleaf plant response rating ([3]; 500 g ai/ha),Ragweed plant response rating ([4]; 31 g ai/ha),Ragweed plant response rating ([4]; 250 g ai/ha),Ragweed plant response rating ([4]; 500 g ai/ha),"Plant response rating, Smartweed ([5]; 31 g ai/ha)","Plant response rating, Smartweed ([5]; 62 g ai/ha)",further results
O=C(c1ccccc1)c1cn(S(=O)(=O)CCl)nc1-c1cc(Cl)cc(Cl)c1 [Compound 1],0,0,0,50,98,0,0,0,0,0,35,40,50,35,50,50,75,75,0,35,"Plant response rating, Smartweed ([5]; 125 g ai/ha): 50; Plant response rating, Smartweed ([5]; 250 g ai/ha): 75; Foxtail, Giant plant response rating ([6]; 31 g ai/ha): 0; Foxtail, Giant plant response rating ([6]; 62 g ai/ha): 0; Foxtail, Giant plant response rating ([6]; 125 g ai/ha): 0; Foxtail, Giant plant response rating ([6]; 250 g ai/ha): 0; Foxtail, Giant plant response rating ([6]; 500 g ai/ha): 0"
O=C(c1ccccc1)c1cn(S(=O)(=O)C(F)(F)F)nc1-c1cc(Cl)cc(Cl)c1 [Compound 2],0,0,0,65,90,0,0,0,0,0,0,0,0,0,100,0,100,100,0,65,"Ragweed plant response rating ([4]; 125 g ai/ha): 0; Plant response rating, Smartweed ([5]; 125 g ai/ha): 75; Plant response rating, Smartweed ([5]; 250 g ai/ha): 95; Foxtail, Giant plant response rating ([6]; 31 g ai/ha): 0; Foxtail, Giant plant response rating ([6]; 62 g ai/ha): 0; Foxtail, Giant plant response rating ([6]; 125 g ai/ha): 0; Foxtail, Giant plant response rating ([6]; 250 g ai/ha): 0; Foxtail, Giant plant response rating ([6]; 500 g ai/ha): 0"
